Source: paper PMC3366211, “Leishmanicidal Activity of Nine Novel Flavonoids from Delphinium staphisagria” (The Scientific World Journal, 2012)

Experiments:
[1] = tested on: L. braziliensis promastigote forms; assay: Promastigote forms assay; type: cell-based, Leishmania braziliensis; details: for SI Promastigote forms: IC50 macrophages/IC50 parasite form; for IC50: Leishmania braziliensis, 72 h; for number of times that compound SI exceeds the reference drug SI, Promastigote forms: in brackets, reference Glucantime
Method: (§1) The compounds obtained were dissolved in the culture medium, at dosages of 100, 50, 25, 10, and 1 μM. The effects of each compound against promastigote forms were tested at 72 hours using a Neubauer haemocytometric chamber. The antileishmanial effect is expressed as the IC50, that is, the concentration required to give 50% inhibition, calculated by linear regression analysis from the Kc values of the concentrations employed.

[2] = tested on: epimastigote forms of Trypanosoma cruzi; parameters: method as in PMID 21466157; details: cited from earlier work
[3] = tested on: L. infantum axenic amastigote forms; assay: Axenic amastigote forms assay; type: cell-based, Leishmania infantum; details: for SI Axenic amastigote forms: IC50 macrophages/IC50 parasite form; for IC50: Leishmania infantum, 48 hours per method (72 h); for number of times that compound SI exceeds the reference drug SI, Axenic amastigote forms: in brackets, reference Glucantime
Method: (§2) Axenic amastigotes forms of L. infantum and L. braziliensis were cultured following the methodology described previously by Moreno et al.. Thus, promastigote transformation to amastigotes was obtained after three days of culture in M199 medium (Invitrogen, Leiden, The Netherlands) supplemented with 10% heat-inactivated FCS, 1 g/L β-alanine, 100 mg/L L-asparagine, 200 mg/L sacarose, 50 mg/L sodium pyruvate, 320 mg/L malic acid, 40 mg/L fumaric acid, 70 mg/L succinic acid, 200 mg/L α-ketoglutaric acid, 300 mg/L citric acid, 1.1 g/L sodium bicarbonate, 5 g/L MES, 0.4 mg/L hemin, and 10 mg/L gentamicin pH 5.4 at 37°C. The effect of each compound against axenic amastigotes forms was tested at 48 hours using a Neubauer haemocytometric chamber. The antileishmanial effect is expressed as the IC50.

[4] = tested on: L. infantum promastigote forms; assay: Promastigote forms assay; type: cell-based, Leishmania infantum; details: for SI Promastigote forms: IC50 macrophages/IC50 parasite form; for IC50: Leishmania infantum, 72 h; for times SI exceeds the reference drug SI (all forms): extracellular and intracellular forms; for times SI exceeds the reference drug SI (all forms) / number of times that compound SI exceeds the reference drug SI, Promastigote forms: reference Glucantime; for number of times that compound SI exceeds the reference drug SI, Promastigote forms: in brackets
Method: as §1

[5] = tested on: L. braziliensis intracellular amastigote forms; assay: Intracellular amastigote forms assay in J774.2 macrophages; type: cell-based, Leishmania braziliensis; details: for SI Intracellular amastigote forms / number of times that compound SI exceeds the reference drug SI, Intracellular amastigote forms: L. braziliensis; for SI Intracellular amastigote forms: IC50 macrophages/IC50 parasite form; for number of times that compound SI exceeds the reference drug SI, Intracellular amastigote forms: in brackets, reference Glucantime; for IC50: Leishmania braziliensis, L. braziliensis in J774.2 macrophages, 72 h
Method: (§3) Cells were seeded at a density of 1 × 10^4 cells/well in 24-well microplates (Nunc) with rounded coverslips on the bottom and cultured for 2 days. Afterwards the cells were infected in vitro with promastigote forms of L. infantum and L. braziliensis, at a ratio of 10 : 1 during 24 hours. The non-phagocytosed parasites were removed by washing, and then the drugs (at 1, 10, 25, 50, 100 μM) were added. Macrophages with the drugs were incubated for 72 hours at 37°C in 5% CO2.
(§4) Drug activity was determined on the basis of number of amastigotes in treated and untreated cultures in methanol-fixed and Giemsa-stained preparations. The number of amastigotes was determined by analyzing 200 host cells distributed in randomly chosen microscopic fields. The antileishmanial effect is expressed as the IC50 values are the means of three separate determinations.

J774.2 macrophages = assay: Cytotoxicity test for macrophages (flow cytometry); type: cell-based, BALB/c rat; details: Mus musculus, J774.2, 72 h, J774.2 macrophages after 72 h of culture; read-out: Macrophage toxicity IC50
Method: J774.2 macrophages (ECACC number 91051511) were originally obtained from a tumour in a female BALB/c […] in 1968. The cytotoxicity test for macrophages was performed according to the methodology of González et al.. After 72 hours of treatment, cell viability was determined by flow cytometry. Thus, 100 μL/well of propidium iodide solution ([…]) was added and incubated for 10 min at 28°C in darkness. Afterwards, 100 μL/well of fluorescein diacetate (100 ng/mL) was added and incubated under the same conditions. Finally, the cells were recovered by centrifugation at 400 g for 10 min and the precipitate washed with phosphate buffered saline (PBS). Flow cytometric analysis was performed with a FACSVantage flow cytometer (Becton Dickinson). The percentage viability was calculated in comparison with the control culture. The IC50 was calculated using linear regression analysis from the Kc values of the concentrations employed.

[6] = tested on: L. braziliensis axenic amastigote forms; assay: Axenic amastigote forms assay; type: cell-based, Leishmania braziliensis; details: for SI Axenic amastigote forms: IC50 macrophages/IC50 parasite form; for IC50: Leishmania braziliensis, 48 hours per method (72 h); for number of times that compound SI exceeds the reference drug SI, Axenic amastigote forms: in brackets, reference Glucantime
Method: as §2

[7] = tested on: L. infantum intracellular amastigote forms; assay: Intracellular amastigote forms assay in J774.2 macrophages; type: cell-based, Leishmania infantum; details: for SI Intracellular amastigote forms / number of times that compound SI exceeds the reference drug SI, Intracellular amastigote forms: L. infantum; for SI Intracellular amastigote forms: IC50 macrophages/IC50 parasite form; for number of times that compound SI exceeds the reference drug SI, Intracellular amastigote forms: in brackets, reference Glucantime; for IC50: Leishmania infantum, L. infantum in J774.2 macrophages, 72 h
Method: as §3, §4

[8] = tested on: L. braziliensis promastigotes; assay: Metabolite excretion (1H-NMR); type: cell-based, Leishmania braziliensis; details: IC25, 96 hours, vs control
Method: (§5) Cultures of L. infantum and L. braziliensis promastigotes (initial concentration 5 × 10^5 cells/mL) received IC25 concentrations of the compounds (except for control cultures). After incubation for 96 hours at 28°C, the cells were centrifuged at 400 g for 10 min. Then supernatants were collected to determine the excreted metabolites using ^1H-NMR, and, eventually, chemical displacements were expressed in parts per million (ppm), using sodium 2,2-dimethyl-2-silapentane-5-sulphonate as the reference signal. The chemical displacements used to identify the respective metabolites were consistent with those described by Fernández-Becerra et al.

[9] = tested on: L. braziliensis promastigotes; assay: Ultrastructural alterations (TEM); type: cell-based, Leishmania braziliensis; details: IC25, 96 hours
Method: (§6) The parasites were cultured at a density of 5 × 10^5 cells/mL in MTL medium, and the cultures contained drugs at the IC25 concentration.
(§7) After 96 hours, those cultures were centrifuged at 400 g for 10 min, and the pellets produced were washed in PBS and then mixed with 2% (v/v) P-formaldehyde-glutaraldehyde in 0.05 M cacodylate buffer (pH 7.4) for 4 hours at 4°C. After that, the pellets were prepared for TEM employing the technique of González et al..

[10] = tested on: L. infantum promastigotes; assay: Ultrastructural alterations (TEM); type: cell-based, Leishmania infantum; details: IC25, 96 hours
Method: as §6, §7

L. infantum = assay: Infection assay in J774.2 macrophages; type: cell-based, Leishmania infantum; details: IC25 concentration; for infection rate decrease, percentage of inhibition capacity: with respect to control
Method: (§8) J774.2 macrophage cells were grown under the same conditions expressed in amastigote forms assay during two days. Afterwards, the cells were infected in vitro with promastigote forms of L. infantum and L. braziliensis, at a ratio of 10 : 1. The drugs (IC25 concentrations) were added immediately after infection and were incubated for 12 hours at 37°C in 5% CO2. The nonphagocytosed parasites and the drugs were removed by washing, and then the infected cultures were grown for 10 days in fresh medium. Fresh culture medium was added every 48 h. The drug activity was determined from the percentage of infected cells and the number of amastigotes per infected cell (in treated and untreated cultures) in methanol-fixed and Giemsa-stained preparations. The percentage of infected cells and the mean number of amastigotes per infected cell were determined by analyzing 200 host cells distributed in randomly chosen microscopic fields. Values are the average of three separate determinations.

L. braziliensis = assay: Infection assay in J774.2 macrophages; type: cell-based, Leishmania braziliensis; details: IC25 concentration; for infection rate decrease, percentage of inhibition capacity: with respect to control
Method: as §8

[11] = tested on: L. infantum promastigotes; assay: Metabolite excretion (1H-NMR); type: cell-based, Leishmania infantum; details: IC25, 96 hours, vs control
Method: as §5

Row | Compound | SI Promastigote forms [1] | IC50 [1] [µM] | number of times that compound SI exceeds the reference drug SI, Promastigote forms [1] | SI Axenic amastigote forms [3] | IC50 [3] [µM] | number of times that compound SI exceeds the reference drug SI, Axenic amastigote forms [3] | SI Promastigote forms [4] | IC50 [4] [µM] | times SI exceeds the reference drug SI (all forms) [4] | number of times that compound SI exceeds the reference drug SI, Promastigote forms [4] | SI Intracellular amastigote forms [5] | number of times that compound SI exceeds the reference drug SI, Intracellular amastigote forms [5] | IC50 [5] [µM] | IC50 (J774.2 macrophages) [µM] | SI Axenic amastigote forms [6] | IC50 [6] [µM] | number of times that compound SI exceeds the reference drug SI, Axenic amastigote forms [6] | SI Intracellular amastigote forms [7] | number of times that compound SI exceeds the reference drug SI, Intracellular amastigote forms [7] | IC50 [7] [µM] | further results
1 | CC(=O)OC[C@H]1O[C@@H](Oc2c(-c3ccc(OC(C)=O)cc3)oc3cc(OC(C)=O)cc(OC(C)=O)c3c2=O)[C@H](OC(C)=O)[C@@H](OC(C)=O)[C@@H]1OC(C)=O [Compound 3] | 12.3 | 28.4 ± 3 | 21 | 12.0 | 29.2 ± 3.1 | 20 | 8.7 | 40.4 ± 3.4 | < 50 times | 11 | 8.4 | 17 | 41.9 ± 4 | 351 ± 26.8 | 10.7 | 32.9 ± 3 | 21 | 9.2 | 18 | 38.1 ± 1.6 | IC50 compared with benznidazole [2]: significantly lower IC50 values compared with benznidazole
2 | CC(=O)O[C@H]1[C@H](Oc2c(-c3ccc(O)c(O)c3)oc3cc(O[C@@H]4O[C@@H](C)[C@H](O)[C@@H](O)[C@H]4O)cc(O)c3c2=O)O[C@H](CO)[C@@H](O)[C@@H]1O [Compound 8, 2′′-acetylpetiolaroside] | >34.5 | 29 ± 1.5 | 58 | >54.3 | 18.4 ± 1.3 | 91 | 52.4 | – | more than 50 times | 66 | >49.8 | 100 | 20.1 ± 1.7 | > 1000 | >39.2 | 25.5 ± 0.7 | 78 | >31.2 | 62 | 32.1 ± 2 | change in excreted catabolites [8]: decreases in the excretion of acetate; ultrastructural alterations by TEM [9]: induced changes in the shape of parasites, with them showing completely altered forms; ultrastructural alterations by TEM [10]: many of the parasites adopted distorted shapes with distorted cytoplasm; decrease of average number of amastigotes per infected macrophage cell (L. infantum): 78%; infection rate decrease, percentage of inhibition capacity (L. infantum): 95%; decrease of average number of amastigotes per infected macrophage cell (L. braziliensis): 82%; infection rate decrease, percentage of inhibition capacity (L. braziliensis): 88%; change in excreted catabolites [11]: an increase in the excretion of succinate, and acetate, followed by malate, alanine, lactate and ethanol
3 | C[C@H]1O[C@H](Oc2cc(O)c3c(=O)c(O[C@@H]4O[C@H](CO)[C@@H](O)[C@H](O)[C@H]4O)c(-c4ccc(O)c(O)c4)oc3c2)[C@@H](O)[C@@H](O)[C@@H]1O [Compound 7, petiolaroside] | >47.4 | 21.1 ± 1.7 | 79 | >51.5 | 19.4 ± 1.4 | 86 | >40.8 | 24.5 ± 1.1 | more than 50 times | 51 | >29.5 | 59 | 33.9 ± 3.5 | > 1000 | >51.3 | 19.5 ± 0.8 | 103 | >36.0 | 72 | 27.8 ± 1.4 | change in excreted catabolites [8]: decreases in the excretion of acetate; ultrastructural alterations by TEM [9]: All these changes occurred; ultrastructural alterations by TEM [10]: no induction of substantial alterations; decrease of average number of amastigotes per infected macrophage cell (L. infantum): 49%; infection rate decrease, percentage of inhibition capacity (L. infantum): 77%; decrease of average number of amastigotes per infected macrophage cell (L. braziliensis): 55%; infection rate decrease, percentage of inhibition capacity (L. braziliensis): 69%; change in excreted catabolites [11]: an increase in the production of malate, succinate, ethanol, and lactate, but a decrease of excreted acetate and alanine levels
